Reference: ChEMBL document CHEMBL1201862, “PubChem BioAssay data set” (2004)
The source made the active and inactive calls.

Assays:
[1] = HEp-2 cell cytotoxicity, dose response, cytotoxicity control for RSV inhibitor project, HTS (AID 2410); format: functional; conditions: human respiratory syncytial virus
[2] = cells; format: functional
[3] = growth suppression of PTEN-null colon cells, dose response, cell-based, HCT116 PTEN knockout (AID 1047); format: functional;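 note: HCT116 colon tumor cells with PTEN knocked out; cells exposed to compound for 60 hours before readout; potency for loss of cell viability measured by luminescence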
[4] = growth suppression of beta-catenin-knockout colon cells, dose response, cell-based, HCT116, human colon tumor (AID 1045); format: functional;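 note: HCT116 colon tumor cells with beta catenin knocked out; cells exposed to compound for 60 hours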
[5] = target: FAD-linked sulfhydryl oxidase ALR (Homo sapiens, UniProt P55789); assay: inhibitors of human ALR sulfhydryl oxidase, dose response, biochemical, H2O2 detection, luminescence, cherry-pick (AID 493248)
[6] = cells; format: functional, cell-based
[7] = cells; format: functional, cell-based; remark: listed apart in the source
[8] = inhibitors of intracellular T. cruzi replication, confirmation, NIH3T3 host cells, beta-gal luminescence (AID 2044); format: functional, cell-based;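 note: intracellular parasites grown in NIH/3T3 mouse fibroblasts as host cells; luminescent beta-galactosidase reporter signal from transgenic T. cruzi replicating inside host cells; inhibitors lower the luminescence signal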
[9] = cytotoxicity toward NIH3T3 fibroblasts, dose response, counter-screen, cell-based, ATP luminescence, mouse fibroblasts (AID 2010); format: functional;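 note: cells exposed to compound for about 90 hours before reading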
[10] = target: Cytochrome P450 2D6 (Homo sapiens, UniProt P10635);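 note: CYP2D6 member of a cytochrome P450 panel assay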
[11] = target: T1, Polyadenylate-binding protein 1 (Homo sapiens, UniProt P11940); assay: PABP1 MLLE–PAM2 interaction inhibitors, dose response, miRNA deadenylation inhibitor project, biochemical, fluorescence polarization, Cy5-PAM2 peptide, secondary (AID 602260); format: functional; conditions: read-out: IC50_Mean
[12] = target: T1, Polyadenylate-binding protein 1; assay: PABP1 MLLE–PAM2 binding inhibitor potency, dose response, biochemical, fluorescence polarization, FITC-PAM2 peptide (AID 602259); format: functional; conditions: read-out: IC50_Mean
[13] = target: Cytochrome P450 2C9 (Homo sapiens, UniProt P11712)
[14] = Luminescence Cell-Based Dose Retest to Confirm Inhibitors of Cancer Stem Cells. [Related pubchem assays (depositor defined):AID2717, AID2721]; format: functional; conditions: Homo sapiens
[15] = Shn3 3'UTR reporter inhibitors, dose response, cell-based, Clone20 osteoblasts, firefly luciferase, cherry-picked (AID 624132); format: functional;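 note: firefly luciferase luminescence from reporter carrying the Shn3 3'UTR in osteoblasts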
[16] = HepG2 cell cytotoxicity, dose response, cytotoxicity control for Shn3 inhibitor project, CellTiter-Glo, cherry-picked (AID 624134); format: functional, cell-based
[17] = control 3'UTR Renilla luciferase suppression, dose response, counter-screen for Shn3 inhibitor project, cell-based, Clone20-Shn3RL, cherry-picked (AID 624133); format: functional
[18] = target: T2, Cytochrome P450 1A2 (Homo sapiens, UniProt P05177);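 note: PubChem cytochrome P450 panel assay, CYP1A2 panel member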
T2 sequence (P05177 whole entry): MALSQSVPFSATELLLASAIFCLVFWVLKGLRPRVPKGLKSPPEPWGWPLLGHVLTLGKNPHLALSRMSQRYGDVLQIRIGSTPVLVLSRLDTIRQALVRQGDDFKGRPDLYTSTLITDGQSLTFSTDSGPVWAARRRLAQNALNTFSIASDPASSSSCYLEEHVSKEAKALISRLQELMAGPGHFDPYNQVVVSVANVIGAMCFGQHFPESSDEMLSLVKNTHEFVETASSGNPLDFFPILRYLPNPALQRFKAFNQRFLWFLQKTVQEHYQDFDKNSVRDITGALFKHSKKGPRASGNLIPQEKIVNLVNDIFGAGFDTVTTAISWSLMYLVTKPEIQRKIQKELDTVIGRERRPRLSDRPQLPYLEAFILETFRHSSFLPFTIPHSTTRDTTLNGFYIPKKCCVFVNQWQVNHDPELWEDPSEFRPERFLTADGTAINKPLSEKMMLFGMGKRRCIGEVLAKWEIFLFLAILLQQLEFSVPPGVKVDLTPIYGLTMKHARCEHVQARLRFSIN

[19] = target: Cytochrome P450 3A4 (Homo sapiens, UniProt P08684);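 note: CYP3A4 tested as one member of a cytochrome P450 panel screen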
[20] = target: T3, Heat shock factor protein 1 (Mus musculus, UniProt P38532); assay: inhibition of MG132-induced HSE-luciferase signal, confirmation, cell-based, NIH3T3, luminescence, dose retest (AID 2382); format: functional;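 note: NIH3T3 fibroblasts with HSF1-driven luciferase reporter stressed by proteasome inhibitor MG132; luminescence from HSF1-driven luciferase expression after 8 hours of MG132 stress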
T3 sequence (P38532 whole entry): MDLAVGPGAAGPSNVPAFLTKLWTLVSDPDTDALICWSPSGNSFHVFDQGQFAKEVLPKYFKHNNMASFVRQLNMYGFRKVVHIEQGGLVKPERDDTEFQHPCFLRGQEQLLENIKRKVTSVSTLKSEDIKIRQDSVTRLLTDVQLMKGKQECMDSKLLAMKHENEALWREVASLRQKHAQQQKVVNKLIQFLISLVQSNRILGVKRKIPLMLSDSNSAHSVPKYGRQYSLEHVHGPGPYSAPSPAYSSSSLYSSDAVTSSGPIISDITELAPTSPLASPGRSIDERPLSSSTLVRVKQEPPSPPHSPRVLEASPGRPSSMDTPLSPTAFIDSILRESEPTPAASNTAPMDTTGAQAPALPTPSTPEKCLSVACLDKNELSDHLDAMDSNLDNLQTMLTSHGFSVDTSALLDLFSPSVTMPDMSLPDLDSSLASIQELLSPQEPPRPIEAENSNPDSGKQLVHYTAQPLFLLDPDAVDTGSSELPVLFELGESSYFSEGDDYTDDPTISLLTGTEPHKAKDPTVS

[21] = test system: H4; assay: Luminescence Cell-Based Dose Response HTS to Identify Activators of 5'UTR Stem-Loop Driven Prion Protein mRNA Translation in H4 Neuroglioblastoma Cells. [Related pubchem assays: 1829 (Project Summary), 1814 (Primary HTS)]; format: functional; conditions: Homo sapiens
[22] = target: Cytochrome P450 2C19 (Homo sapiens, UniProt P33261); assay: Cytochrome panel assay with activity outcomes. Panel member name: p450-cyp2c19 Compounds with AC50 equal or less than 10 uM are considered active; format: functional; conditions: read-out: AC50
Sequence of Cytochrome P450 2C19 (P33261 whole entry): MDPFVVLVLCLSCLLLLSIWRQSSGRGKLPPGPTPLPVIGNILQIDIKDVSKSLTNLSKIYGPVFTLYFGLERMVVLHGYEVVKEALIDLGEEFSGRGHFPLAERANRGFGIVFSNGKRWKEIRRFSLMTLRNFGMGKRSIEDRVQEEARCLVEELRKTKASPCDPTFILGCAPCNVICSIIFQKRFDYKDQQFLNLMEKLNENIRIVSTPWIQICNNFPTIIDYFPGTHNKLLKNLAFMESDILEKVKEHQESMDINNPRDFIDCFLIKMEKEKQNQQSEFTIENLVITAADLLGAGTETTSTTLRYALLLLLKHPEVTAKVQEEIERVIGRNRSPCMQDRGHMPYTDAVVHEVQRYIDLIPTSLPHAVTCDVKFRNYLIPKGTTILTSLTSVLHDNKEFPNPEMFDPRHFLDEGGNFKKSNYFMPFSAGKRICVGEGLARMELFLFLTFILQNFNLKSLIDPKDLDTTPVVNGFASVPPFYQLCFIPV

T1 sequence (P11940 whole entry): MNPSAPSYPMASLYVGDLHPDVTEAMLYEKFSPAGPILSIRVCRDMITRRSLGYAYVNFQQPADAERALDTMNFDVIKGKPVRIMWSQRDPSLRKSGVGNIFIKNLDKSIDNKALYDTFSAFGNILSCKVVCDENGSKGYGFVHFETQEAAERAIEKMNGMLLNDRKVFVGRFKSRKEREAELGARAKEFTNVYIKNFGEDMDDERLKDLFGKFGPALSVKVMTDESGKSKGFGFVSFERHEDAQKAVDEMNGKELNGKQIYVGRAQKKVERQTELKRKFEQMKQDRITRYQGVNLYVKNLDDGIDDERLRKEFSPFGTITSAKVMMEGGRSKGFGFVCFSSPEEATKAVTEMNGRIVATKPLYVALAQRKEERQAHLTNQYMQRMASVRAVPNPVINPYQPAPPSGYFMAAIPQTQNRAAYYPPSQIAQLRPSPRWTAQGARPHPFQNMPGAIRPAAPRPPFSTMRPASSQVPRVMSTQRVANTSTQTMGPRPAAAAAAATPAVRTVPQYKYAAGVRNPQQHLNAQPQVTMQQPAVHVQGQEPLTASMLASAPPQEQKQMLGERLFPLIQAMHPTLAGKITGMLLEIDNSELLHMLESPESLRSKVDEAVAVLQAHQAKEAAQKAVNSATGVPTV
Sequence of FAD-linked sulfhydryl oxidase ALR (P55789 whole entry): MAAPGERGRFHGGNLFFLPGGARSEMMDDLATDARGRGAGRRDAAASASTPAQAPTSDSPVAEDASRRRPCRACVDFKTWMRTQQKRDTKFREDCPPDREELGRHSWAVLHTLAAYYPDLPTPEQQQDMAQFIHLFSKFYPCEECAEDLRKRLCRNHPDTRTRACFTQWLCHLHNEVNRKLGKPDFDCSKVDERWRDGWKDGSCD
Sequence of Cytochrome P450 3A4 (P08684 whole entry): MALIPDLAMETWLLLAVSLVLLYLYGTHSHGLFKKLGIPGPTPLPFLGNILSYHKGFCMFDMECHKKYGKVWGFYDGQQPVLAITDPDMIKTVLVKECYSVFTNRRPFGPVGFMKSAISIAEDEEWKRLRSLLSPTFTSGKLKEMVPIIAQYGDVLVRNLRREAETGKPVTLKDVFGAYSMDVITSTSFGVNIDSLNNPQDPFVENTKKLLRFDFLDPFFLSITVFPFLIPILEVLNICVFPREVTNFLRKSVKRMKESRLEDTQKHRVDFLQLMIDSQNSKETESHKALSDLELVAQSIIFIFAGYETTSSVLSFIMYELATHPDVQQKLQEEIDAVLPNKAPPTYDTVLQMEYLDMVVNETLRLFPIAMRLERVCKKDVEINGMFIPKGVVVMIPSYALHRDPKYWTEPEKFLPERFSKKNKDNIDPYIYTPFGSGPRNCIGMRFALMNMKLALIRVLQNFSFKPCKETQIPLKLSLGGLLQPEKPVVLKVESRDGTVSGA
Sequence of Cytochrome P450 2D6 (P10635 whole entry): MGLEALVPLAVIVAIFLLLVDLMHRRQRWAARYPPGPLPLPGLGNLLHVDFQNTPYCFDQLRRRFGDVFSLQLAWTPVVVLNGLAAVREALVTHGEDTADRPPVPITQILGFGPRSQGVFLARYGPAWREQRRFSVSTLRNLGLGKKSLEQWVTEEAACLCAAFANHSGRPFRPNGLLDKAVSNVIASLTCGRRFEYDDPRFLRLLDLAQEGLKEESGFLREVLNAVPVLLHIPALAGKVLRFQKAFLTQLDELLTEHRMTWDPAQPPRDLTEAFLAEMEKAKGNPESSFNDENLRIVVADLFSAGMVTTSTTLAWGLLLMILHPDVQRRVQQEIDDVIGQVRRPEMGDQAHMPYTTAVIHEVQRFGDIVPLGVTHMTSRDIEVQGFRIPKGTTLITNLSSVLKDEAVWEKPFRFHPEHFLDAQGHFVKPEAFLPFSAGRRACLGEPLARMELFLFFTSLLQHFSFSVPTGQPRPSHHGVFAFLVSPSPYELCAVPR
Sequence of Cytochrome P450 2C9 (P11712 whole entry): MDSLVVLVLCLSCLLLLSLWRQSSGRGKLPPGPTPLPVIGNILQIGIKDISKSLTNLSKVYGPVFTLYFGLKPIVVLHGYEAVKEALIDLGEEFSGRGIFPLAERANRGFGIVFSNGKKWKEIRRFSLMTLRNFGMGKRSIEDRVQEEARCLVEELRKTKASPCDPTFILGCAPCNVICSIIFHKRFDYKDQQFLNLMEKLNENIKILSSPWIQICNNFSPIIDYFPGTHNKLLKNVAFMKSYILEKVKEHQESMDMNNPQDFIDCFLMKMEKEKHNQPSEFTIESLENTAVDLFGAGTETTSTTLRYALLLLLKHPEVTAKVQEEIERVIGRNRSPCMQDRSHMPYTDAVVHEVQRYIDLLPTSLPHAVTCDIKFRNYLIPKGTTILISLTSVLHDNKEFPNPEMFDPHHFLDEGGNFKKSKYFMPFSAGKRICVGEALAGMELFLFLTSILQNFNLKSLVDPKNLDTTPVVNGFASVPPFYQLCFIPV

Structure (SMILES): N#Cc1nc(-c2cccc3ccccc23)oc1NCC1CCCO1 (stereo unspecified)
- CC50 [1]: 21.7 µM (active)

Structure (SMILES): COC(=O)[C@H](CC(C)C)NC(=O)NCCC1=CCCCC1
- IC50 [2]: 21.6 µM (active)

Structure (SMILES): CCCOc1ccc(NC(=O)CC2C(=O)N(CC)C(=S)N2CCCN2CCN(Cc3ccccc3)CC2)cc1 (stereo unspecified)
- CC50 [1]: 14.3 µM (active)

Structure (SMILES): COc1ccc(S(=O)(=O)Cc2ccc(C(=O)N3CCN(c4ccc(Cl)cc4)CC3)o2)cc1
- EC50 [3]: 16.3 µM (active)
- EC50 [4]: 38.8 µM (active)
- AC50 [5]: 5.64 µM (active)

Structure (SMILES): COCc1c(C(=O)N/N=C(\C)c2ccc(Cl)s2)nnn1-c1nonc1N
- EC50 [6]: > 350 µM (not active)
- EC50 [7]: > 350 µM (not active)

Structure (SMILES): O=P(CN1CCN(c2ccccc2)CC1)(N1CCCCC1)N1CCCCC1
- AC50 [5]: 0.656 µM (active)

Structure (SMILES): O=C(Nc1cccc(NC(=O)c2ccc(-c3cccc(Br)c3)o2)c1)c1ccco1
- CC50 [1]: 16 µM (active)
- EC50 [8]: 3.69 µM (active)
- EC50 [9]: 14.9 µM (active)
- AC50 [10]: 17.8 µM (inconclusive)

Structure (SMILES): CCN1C(=O)[C@@H]2[C@@H](c3ccc(SC4CCCCC4)cc3)N3CCC[C@@]3(C(=O)OC)[C@@H]2C1=O
- IC50 [11]: > 66 µM (inactive)
- IC50 [12]: > 66 µM (inactive)

Structure (SMILES): NCCCCCc1nnc(SCc2ccc(Cl)cc2Cl)o1
- AC50 [5]: 2.63 µM (active)
- AC50 [13]: 14.1 µM (inconclusive)

Structure (SMILES): CCc1c(C(C)S(=O)(=O)c2ccccc2)nc(O)n1CC (stereo unspecified)
- IC50 [11]: > 66 µM (inactive)
- IC50 [12]: > 66 µM (inactive)

Structure (SMILES): CN(C)c1ccc(/C=N/NC(=O)c2ccco2)cc1
- AC50 [5]: 6.78 µM (active)

Structure (SMILES): O=C(CS(=O)(=O)c1ccccc1)Nc1ccc(N2CCOCC2)cc1
- EC50 [6]: > 350 µM (not active)
- EC50 [7]: > 350 µM (not active)

Structure (SMILES): O=C(c1ccc(S(=O)(=O)c2cccc(Cl)c2)c([N+](=O)[O-])c1)N1CCN(Cc2ccccc2)CC1
- CC50 [1]: 6.34 µM (active)

Structure (SMILES): CC(=O)c1ccc(N2CCC(c3cc(-c4ccc(Cl)cc4)[nH]n3)CC2)c([N+](=O)[O-])c1
- EC50 [8]: 1.13 µM (active)
- EC50 [9]: > 60 µM (inconclusive)
- AC50 [14]: 2.39 µM (active)
- AC50 [15]: 5 µM (active)
- AC50 [16]: > 70 µM (inactive)
- AC50 [17]: 20 µM (active)
- AC50 [18]: 2.82 µM (inconclusive)
- AC50 [19]: 39.8 µM (inconclusive)

Structure (SMILES): CCc1nc2sc3ccccc3c(=O)c2c(=O)n1Cc1ccc(OC)cc1
- CC50 [1]: > 50 µM (active)
- EC50 [20]: > 195 µM (not active)

Structure (SMILES): CN(C)c1nc(-c2cn(CCC#N)c3ccccc23)cs1
- IC50 [11]: > 66 µM (inactive)
- IC50 [12]: 56.9 µM (inactive)

Structure (SMILES): COc1cc2c(cc1NC(=O)CSc1nnnn1-c1ccccc1)oc1ccccc12
- CC50 [1]: 15.6 µM (active)

Structure (SMILES): O=C(NCc1cccs1)C1CC(=O)N(C2CCCC2)C1 (stereo unspecified)
- EC50 [6]: > 350 µM (not active)
- EC50 [7]: > 350 µM (not active)

Structure (SMILES): COc1cccc(Nc2ccc(C(=O)O)cc2N)c1
- EC50 [20]: > 195 µM (not active)
- AC50 [5]: 1.17 µM (active)

Structure (SMILES): COc1cc2sc3ccc(-c4ccc5[nH]ccc5c4)cc3c(=O)c2cc1OC
- EC50 [21]: > 120 µM (not active)

Structure (SMILES): O=C(O)Cn1cc(C(=S)N2CCCCC2)c2ccccc21
- AC50 [5]: 0.407 µM (active)

Structure (SMILES): COc1cccc(Nc2c(F)c(F)c(F)c(F)c2C(=O)O)c1
- AC50 [5]: 4.26 µM (active)

Structure (SMILES): CN1CCN(C(=S)c2ccc(N(C)C)cc2)CC1
- AC50 [5]: 1.45 µM (active)

Structure (SMILES): O=[N+]([O-])c1ccc(CN2CCN(c3ccc(F)cc3)CC2)o1
- IC50 [2]: < 0.1 µM (active)

Structure (SMILES): Cc1cccn2c(=O)c(/C=N/Cc3ccco3)c(Nc3ccc(SC(F)F)cc3)nc12
- EC50 [3]: 10.7 µM (active)
- EC50 [4]: 14 µM (active)
- AC50 [22]: 4.47 µM (inconclusive)

Structure (SMILES): Cc1ccc2c(CC(=O)N3CCc4ccccc43)coc2c1
- EC50 [21]: 18.5 µM (active)

Structure (SMILES): O=C1NCCCc2c1oc1cc(Br)c(O)c(Br)c21
- AC50 [5]: 3.5 µM (active)

Structure (SMILES): Cc1ccc2c(c1)C(c1ccc([N+](=O)[O-])cc1)=NNC(c1ccc(Br)cc1)=N2
- CC50 [1]: 14.7 µM (active)

Structure (SMILES): N#Cc1c2n(c(=S)n(-c3ccccc3[N+](=O)[O-])c1=O)CCCCC2
- IC50 [11]: > 66 µM (inactive)
- IC50 [12]: > 66 µM (inactive)

Structure (SMILES): CCOC(=O)Cc1cnc(S)nc1O
- IC50 [11]: > 66 µM (inactive)
- IC50 [12]: > 66 µM (inactive)

Structure (SMILES): Cc1ccc(NC(=O)CN(c2ccc3c(c2)OCO3)S(=O)(=O)c2c(C)n[nH]c2C)cc1
- AC50 [5]: > 100 µM (inactive)

Structure (SMILES): CC(C)N(CC(N)=O)c1ncnc2sc(-c3ccccc3)cc12
- CC50 [1]: 25.9 µM (active)

Structure (SMILES): Cc1ccc(-c2ccc(=O)n(CC(=O)NCc3ccco3)n2)cc1
- AC50 [10]: 22.4 µM (inconclusive)
- AC50 [18]: 15.8 µM (inconclusive)
- AC50 [19]: 25.1 µM (inconclusive)

Structure (SMILES): CC(C)=CCN1CCN(CCC2=C(C)CCCC2(C)C)CC1CCO (stereo unspecified)
- IC50 [2]: 21.8 µM (active)

Structure (SMILES): Cn1cc(C(=O)N2CCCC(Nc3ccc(F)cc3)C2)c2ccccc21 (stereo unspecified)
- AC50 [5]: 1.5 µM (active)

Structure (SMILES): CCOC(=O)c1cc(CC)sc1NC(=O)c1ccc([N+](=O)[O-])c(N2CCOCC2)c1
- EC50 [3]: 39.9 µM (active)
- EC50 [4]: 34.2 µM (active)

Structure (SMILES): COc1cccc(C2=CC(c3ccc(OC)c(OC)c3OC)n3nnnc3N2)c1 (stereo unspecified)
- CC50 [1]: 6.56 µM (active)

Structure (SMILES): CC(C)CN(C(=O)COC(=O)c1ccc2c(c1)NC(=O)CS2)C1CCS(=O)(=O)C1 (stereo unspecified)
- IC50 [11]: > 66 µM (inactive)
- IC50 [12]: > 66 µM (inactive)

Structure (SMILES): CC1CN=C(NC(=O)c2cccc([N+](=O)[O-])c2)S1 (stereo unspecified)
- IC50 [11]: > 66 µM (inactive)
- IC50 [12]: > 66 µM (inactive)

Structure (SMILES): CCCCOC(=O)c1ccc(NC(=O)C(=O)NCc2cccnc2)cc1
- EC50 [6]: > 350 µM (not active)
- EC50 [7]: > 350 µM (not active)

Structure (SMILES): FC(F)c1nnc2ccc(Cl)nn12
- IC50 [2]: 7.13 µM (active)

Structure (SMILES): COc1cc2ncnc(NCc3cccs3)c2cc1OC
- EC50 [6]: > 350 µM (not active)
- EC50 [7]: > 350 µM (not active)

Structure (SMILES): COc1ccc2oc(C(=O)OCC(=O)Nc3ccccc3OC)c(C)c2c1
- EC50 [6]: > 350 µM (not active)
- EC50 [7]: 40.5 µM (active)
